Laboratory results as given in patent publication US20050037923A1, “Herbicidal mixture based on 7-pyrazolybenzoxazoles” (BASF Aktiengesellschaft, priority 2001, published 2005).
Where a name gives a salt, the structure may show the parent alone.

What was measured:
BIDPI [1] = experiment: Greenhouse test, post-emergence herbicidal action; assay type: in vivo, hairy beggarticks
Source text: (§1) For the post-emergence treatment, the test plants were first grown to a height of 3 to 20 cm, depending on the plant habit, and only then treated. Here, the herbicidal compositions were suspended or emulsified in water as distribution medium and sprayed using finely distributing nozzles.
(§2) The respective components A and B and/or C were formulated as 10% by weight strength emulsion concentrate and introduced to the spray liquor with the amount of solvent system used for applying the active compound. In the examples, the solvent used was water.
(§3) The test period extended over 21 days. During this time, the plants were tended, and their response to the treatments with active compound was evaluated.
(§4) The evaluation for the damage caused by the chemical compositions was carried out using a scale from 0 to 100%, compared to the untreated control plants. Here, 0 means no damage and 100 means complete destruction of the plants.
(§5) In the examples below, the value E which is to be expected if the activity of the individual active compounds is just additive was calculated using the method of S. R. Colby (1967) “Calculating synergistic and antagonistic responses of herbicide combinations”, Weeds 15, p. 22 ff. E=X+Y—(X·Y/100) where • X=effect in percent using active compound A at an application rate a; • Y=effect in percent using active compound B at an application rate b; • E=expected effect (in %) of A+B at application rates a+b.
(§6) The plants used in the greenhouse experiments were of the following species: […]

BRAPL = experiment: Greenhouse test, post-emergence herbicidal action; assay type: in vivo, alexandergrass
Source text: as §1, §2, §3, §4, §5, §6

ECHCG = experiment: Greenhouse test, post-emergence herbicidal action; assay type: in vivo, barnyardgrass
Source text: as §1, §2, §3, §4, §5, §6

GALAP = experiment: Greenhouse test, post-emergence herbicidal action; assay type: in vivo, catchweed bedstraw
Source text: as §1, §2, §3, §4, §5, §6

ABUTH [2] = experiment: Greenhouse test, post-emergence herbicidal action; assay type: in vivo, velvet leaf; settings: 21 days
Source text: as §1, §2, §3, §4, §5, §6

POLPE = experiment: Greenhouse test, post-emergence herbicidal action; assay type: in vivo, ladysthumb
Source text: as §1, §2, §3, §4, §5, §6

AVEFA = experiment: Greenhouse test, post-emergence herbicidal action; assay type: in vivo, wild oat
Source text: as §1, §2, §3, §4, §5, §6

crop plants = experiment: Safener action, pre-emergence, damage to crop plants; assay type: in vivo; settings: 21 days, application rate 100 g/ha
Source text: (§7) For the pre-emergence treatment, the test plants were sown is pots 1-2 days later, i.e. prior to germination, the pots were sprayed with the finely distributed herbicidal compositions, which had been suspended in water.
as §2, §4
As in the example above, test plants were grown, treated with the mixture according to the invention by the Pre-emergence method and, after a test period of 21 days, evaluated using a scale from 0 to 100% damage. The test plants used were crop plants.
A safener action is present if the damage to the crop plant caused by using a mixture according to the invention which comprises a safener C) is less than the damage caused when active compound A or active compounds A and B are used without safener.

ABUTH [3] = experiment: Greenhouse test, pre-emergence herbicidal action; assay type: in vivo, velvet leaf
Source text: as §7, §2, §3, §4, §5, §6

BIDPI [4] = experiment: Greenhouse test, pre-emergence herbicidal action; assay type: in vivo, hairy beggarticks
Source text: as §7, §2, §3, §4, §5, §6

MATIN = experiment: Greenhouse test, post-emergence herbicidal action; assay type: in vivo, false chamomille; settings: application rate 250 g/ha
Source text: as §1, §2, §3, §4, §5, §6

POAAN = experiment: Greenhouse test, post-emergence herbicidal action; assay type: in vivo, annual bluegrass; settings: application rate 250 g/ha
Source text: as §1, §2, §3, §4, §5, §6

VERSS = experiment: Greenhouse test, post-emergence herbicidal action; assay type: in vivo, speadwell; settings: application rate 250 g/ha
Source text: as §1, §2, §3, §4, §5, §6

[5] = application rate 0.49 g/ha (Example 32)
[6] = application rate 0.98 g/ha (Example 32)
[7] = application rate 62.5 g/ha, 21 days
[8] = application rate 125 g/ha, 21 days
[9] = application rate 125 g/ha (Example 28)
[10] = application rate 250 g/ha (Example 28)

Structure (SMILES): CNC.O=C(O)COc1ccc(Cl)cc1Cl [2,4-D dimethylamine salt]
- Herbicidal action against BIDPI, Found (BIDPI [1]; application rate 31.25 g/ha): 80%
- Herbicidal action against BIDPI, Found (BIDPI [1]; application rate 62.5 g/ha (Example 31)): 80%
- Herbicidal action against BRAPL, Found (BRAPL; application rate 31.25 g/ha): 10%
- Herbicidal action against BRAPL, Found (BRAPL; application rate 62.5 g/ha): 15%

Structure (SMILES): CCCc1nc2c(Cl)cc(F)c(-c3nn(C)c(OC(F)F)c3Br)c2o1 [I.15]
- Herbicidal action against BIDPI, Found (BIDPI [1]; application rate 0.49 g/ha): 30%
- Herbicidal action against BIDPI, Found (BIDPI [1]; application rate 0.98 g/ha): 40%
- Herbicidal action against BRAPL, Found (BRAPL; application rate 0.49 g/ha): 30%
- Herbicidal action against BRAPL, Found (BRAPL; application rate 0.98 g/ha): 75%
- Herbicidal action against ECHCG, Found (ECHCG; [5]): 30%
- Herbicidal action against ECHCG, Found (ECHCG; [6]): 40%
- Herbicidal action against GALAP, Found (GALAP; application rate 0.49 g/ha (Example 29)): 40%
- Herbicidal action against GALAP, Found (GALAP; application rate 0.49 g/ha (Example 30)): 40%
- Herbicidal action against GALAP, Found (GALAP; [5]): 40%
- Herbicidal action against GALAP, Found (GALAP; application rate 0.98 g/ha (Example 29)): 70%
- Herbicidal action against GALAP, Found (GALAP; application rate 0.98 g/ha (Example 30)): 70%
- Herbicidal action against GALAP, Found (GALAP; [6]): 70%

Structure (SMILES): CC(C)c1nc2c(Cl)cc(Cl)c(-c3nn(C)c(OC(F)F)c3Cl)c2o1 [I.18]
- Herbicidal action against BIDPI, Found (BIDPI [1]; application rate 1.95 g/ha (Example 26)): 60%
- Herbicidal action against BIDPI, Found (BIDPI [1]; application rate 1.95 g/ha (Example 27)): 60%
- Herbicidal action against BIDPI, Found (BIDPI [1]; application rate 3.91 g/ha (Example 26)): 60%
- Herbicidal action against BIDPI, Found (BIDPI [1]; application rate 3.91 g/ha (Example 27)): 60%

Structure (SMILES): CCc1cccc(C)c1N(C(=O)CCl)[C@@H](C)COC [S-metolachlor]
- Herbicidal action against GALAP, Found (GALAP; application rate 125 g/ha (Example 29)): 0%
- Herbicidal action against GALAP, Found (GALAP; application rate 250 g/ha (Example 29)): 20%

Structure (SMILES): CCNc1nc(Cl)nc(NC(C)C)n1 [atrazine, reference compound]
- Herbicidal action against ECHCG, Found (ECHCG; [7]): 45%
- Herbicidal action against ECHCG, Found (ECHCG; [8]): 65%

Structure (SMILES): CC(C)N1C(=O)c2ccccc2NS1(=O)=O [bentazone sodium salt, reference compound]
- Herbicidal action against ABUTH, Found (ABUTH [2]; application rate 125 g/ha): 0%
- Herbicidal action against ABUTH, Found (ABUTH [2]; application rate 250 g/ha): 20%
- Herbicidal action against POLPE, Found (POLPE; [8]): 15%
- Herbicidal action against POLPE, Found (POLPE; application rate 250 g/ha, 21 days): 25%

Structure (SMILES): CC1(C)CON(Cc2ccccc2Cl)C1=O [clomazone]
- Herbicidal action against POLPE, Found (POLPE; application rate 125 g/ha): 75%
- Herbicidal action against POLPE, Found (POLPE; application rate 250 g/ha): 75%

Structure (SMILES): COc1c(Cl)ccc(Cl)c1C(=O)O [dicamba]
- Herbicidal action against AVEFA, Found (AVEFA; [9]): 20%
- Herbicidal action against AVEFA, Found (AVEFA; [10]): 20%
- Herbicidal action against BRAPL, Found (BRAPL; [9]): 20%
- Herbicidal action against BRAPL, Found (BRAPL; [10]): 20%

Structure (SMILES): C=CCN(CC=C)C(=O)C(Cl)Cl [dichlormid]
- Damage to the crop plant corn (ZEAMX), cultivar Magister (crop plants): 13%
- Damage to the crop plant corn (ZEAMX), cultivar P3751 (crop plants): 0%

Structure (SMILES): C/C(=N\NC(=O)Nc1cc(F)cc(F)c1)c1ncccc1C(=O)O [diflufenzopyr sodium salt]
- Herbicidal action against ABUTH, Found (ABUTH [3]; application rate 62.5 g/ha): 10%
- Herbicidal action against ABUTH, Found (ABUTH [3]; application rate 125 g/ha): 30%
- Herbicidal action against BIDPI, Found (BIDPI [4]; application rate 62.5 g/ha): 40%
- Herbicidal action against BIDPI, Found (BIDPI [4]; application rate 125 g/ha): 70%

Structure (SMILES): CC(C)N(C(=O)COc1nnc(C(F)(F)F)s1)c1ccc(F)cc1 [flufenacet]
- Herbicidal action against MATIN, Found (MATIN): 10%
- Herbicidal action against POAAN, Found (POAAN): 0%
- Herbicidal action against VERSS, Found (VERSS): 0%

Structure (SMILES): CP(=O)(O)CCC(N)C(=O)O (stereo not shown) [glufosinate ammonium salt]
- Herbicidal action against BRAPL, Found (BRAPL; application rate 125 g/ha (Example 17)): 45%
- Herbicidal action against BRAPL, Found (BRAPL; application rate 125 g/ha (Example 18)): 45%

Structure (SMILES): CC(C)N.O=C(O)CNCP(=O)(O)O [glyphosate isopropylamine salt]
- Herbicidal action against AVEFA, Found (AVEFA; application rate 250 g/ha (Example 15)): 40%
- Herbicidal action against AVEFA, Found (AVEFA; application rate 250 g/ha (Example 16)): 40%

Structure (SMILES): COCc1cnc(C2=NC(C)(C(C)C)C(=O)N2)c(C(=O)O)c1 (stereo not shown) [imazamox, reference compound]
- Herbicidal action against BIDPI, Found (BIDPI [1]; application rate 31.25 g/ha, 21 days): 20%
- Herbicidal action against BIDPI, Found (BIDPI [1]; [7]): 60%
